Experimental data: patent US20230340149A1, “METHODS OF TREATMENT OF INFLAMMATORY BOWEL DISEASES” (INSERM (INSTITUT NATIONAL DE LA SANTÉ ET DE LA RECHERCHE …, priority 2020, published 2023)
Like-named read-outs stand apart in the source and are kept apart here.

Legend:
[1] = cited from earlier work
[2] = in vivo, cited from earlier work
cytochrome P450 enzymes = conditions: cited from earlier work
[3] = highly basic guanidine; cited from earlier work
[4] = test system: adherent-invasive Escherichia coli (strain LF82) biofilms; assay: Adhesion and invasion of bacteria from thrombin-exposed E. coli LF82 biofilms on Caco2 monolayers; type: cell-based
Procedure: Panel B) Biofilms of adherent-invasive Escherichia coli (strain LF82) were formed into the Calgary Biofilm Device (Innovotech, Canada). After 48 hours of incubation (37° C., anaerobic environment), biofilms were exposed to various concentrations of human thrombin (0, 10, 100 to 1000 milliunit/ml). After 24 hours, dispersed bacteria from thrombin-treated biofilms were collected and apically exposed to human epithelial monolayers on 12-wells plates (Caco2, ATCC HB37). Bacterial adhesion to epithelial surface was assessed. Briefly, after 90 minutes of co-culture, cells were vigorously washed in PBS, and lyzed in Triton X100 0.1% for 10 minutes, after which live cell bacteria were counted on Columbia blood agar (CFU were counted after 24 hours incubation of plates at 37° C.). Data represent fold change CFU/ml count compared to untreated controls (=1). ANOVA with Fisher's LSD test, *P<0.05
Panel C) Mucosa-associated microbiota was extracted from 3 healthy human colon biopsies (collected in Toulouse Hospital under ethic approval CODECOH Colic-DC2015-2443), under anaerobic condition, and were seeded into the Calgary Biofilm Device (Innovotech, Canada) to develop a multispecies biofilm. After 48 hours of incubation (37° C., anaerobic environment), biofilms were exposed to human thrombin (0 and 100 milliunit/ml). […] Bacterial invasion into epithelial cells was assessed. […]

mouse colon = assay: Daily intracolonic administration of thrombin in mice, inflammation parameters; type: in vivo
Procedure: Thrombin (specific activity 2000 NIH units/mg protein, T6884, Sigma) was administered daily for 10-days intracolonically daily (5 U/mouse in 50 μl in saline, 0.9% NaCl) under light anaesthesia (3% isoflurane) in PAR-1^−/−, PAR4^−/−, littermates and in mice purchased from Janvier laboratories. Controls received heat-inactivated thrombin (same dose, 10 minutes at 100° C.) or saline alone. After intracolonic instillation, mice were kept upside-down for 2-min to allow colonic diffusion of the administered solution. After 10-days, mice were sacrificed by cervical dislocation and inflammation parameters were measured.
TNBS colitis was induced in fasted rats as previously described^20,21. Animals were housed in ventilated cages, acclimatized for one week before experiment started and beddings were mixed twice. Briefly, TNBS was prepared at a final concentration of 120 mg/ml in 50% ethanol in saline and was kept in the dark before use. A catheter was inserted at 8 cm from the anus and 30 mg of the TNBS solution was instilled through the catheter into the lumen in a final volume of 250 μl/rat. For TNBS colitis induction in mice, fasted animals were lightly anesthetized with halothane. A polyethylene catheter was inserted intracolonically 4 cm from the anus and TNBS (2 mg/mouse in 100 μl) dissolved in a solution of saline plus 40% ethanol was pushed into the catheter. At time of the sacrifice, colonic tissues were harvested. Before opening the colon, luminal washes with a PBS solution were performed in order to measure thrombin activity in those washes. Colons were then cut opened. Macroscopic damage scores were evaluated as previously described^9, by a skilled observer unaware of the treatments. When observed, the following parameters were given score of 1: hemorrhage, edema, stricture, ulceration, fecal blood, mucus, and diarrhea. Erythema was scored a maximum of 2 depending on the length of the area being affected (0, absent; 1, less than 1 cm; and 2, more than 1 cm). Adhesion was scored based on its severity (0, absent; 1, moderate; and 2, severe). Colon thickness was measured using an electronic caliper (Mitutoyo, Mississauga, Canada, resolution 0.01 mm). MPO activity was measured as an index of granulocyte infiltration as previously described. Tissue samples were homogenized in a solution of 0.5% hexadecyltrimethylammonium bromide dissolved in phosphate buffer solution (pH 6.0) for 1 min. Homogenized tissues were centrifuged at 13 000 g for 2 min. Supernatants were added to a buffer supplemented with 1% hydrogen peroxide, and O-dianisidine dihydrochloride solution. Optical density readings were taken for 1 min at 30 s intervals at 450 nm^22. Results were normalized to total protein content and expressed as OD450 nm/min/μg/ml. For bacterial translocation assays, mesenteric lymph nodes were collected aseptically, weighed and homogenized before being plated at 37° C. in Columbia blood agar (BD Biosciences) for 24 h for aerobes, and for 48 h for anaerobes left in anaerobic jars^9. For permeability assays, mice received orally 4-kDa FITC Dextran (Sigma Aldrich) at the dose of 600 mg/kg body weight in PBS, and blood was collected 1-h after. Fluorescence for FITC-Dextran presence in serum was measured by spectrophotometry (excitation 485 nm, emission 528 nm)^23. Apoptosis was measured by TUNEL (terminal deoxynucleotidyl transferase dUTP nick end labeling) staining in mouse colonic tissues as previously described^24,25. Five random fields were captured per tissue section and percent of apoptotic cells was determined by an observer unaware of the treatments.

[5] = test system: human mucosa-associated microbiota biofilms; assay: Adhesion of bacteria dispersed from thrombin-exposed human mucosal biofilms to Caco2 monolayers; type: cell-based; conditions: biofilms exposed to 1 U/ml
Procedure: Methods for FIG. 7. Panel A: Mucosa-associated microbiota was extracted from 4 healthy human colon biopsies (collected in Toulouse Hospital under ethic approval CODECOH Colic-DC2015-2443), under anaerobic condition, and were seeded into the Calgary Biofilm Device (Innovotech, Canada) to develop a multispecies biofilm. After 48 hours of incubation (37° C., anaerobic environment), biofilms were exposed to various concentrations of human thrombin (0, 10, 100 and 1000 milliunit/ml). After 24 hours, dispersed bacteria from thrombin-treated biofilms were collected and apically exposed to human epithelial monolayers on 12-wells plates (Caco2, ATCC HB37). Bacterial adhesion to epithelial surface was assessed. Briefly, after 90 minutes of co-culture, cells were vigorously washed in PBS, and lyzed in Triton X100 0.1% for 10 minutes, after which live cell bacteria were counted on Columbia blood agar (CFU were counted after 24 hours incubation of plates at 37° C.). Data represent fold change CFU/ml count compared to untreated controls (=1). ANOVA with Fisher's LSD test, *P<0.05, ***P<0.001.

[6] = test system: TNBS-induced colitis in rats; assay: TNBS-induced colitis in rats, daily intracolonic treatment; type: in vivo, rat; conditions: vs vehicle
[7] = test system: thrombin activity in human colonic tissues from CD patients; assay: In situ zymography of thrombin activity on frozen colonic tissue sections; type: biochemical; conditions: CD patient colonic cryo-sections, 10 μM, data not shown
IBD patients = conditions: in vivo; cited from earlier work
[8] = HAT 1, 2, 3 studies, HIT, versus historical controls
[9] = 50 μl of 100 U/ml per mouse daily for 10 days, vs vehicle (saline)

## hirudin
[1]; meta-analysis of 11 randomized trials, acute coronary syndrome
  incidence of bleeding compared with heparin: significantly higher incidence of bleeding
[2]
  distributed in the extravascular compartment: 80%
  found in the plasma: 20%

## CCCCCCOC(=O)NC(=N)c1ccc(NCc2nc3cc(C(=O)N(CCC(=O)OCC)c4ccccn4)ccc3n2C)cc1 [dabigatran etexilate]
[1]; long-term treatment
  hepatic toxicity: has not been linked with hepatic toxicity
[2]
  eliminated by the kidneys: > 80%
  plasma half-life: approximately 12 hours
Cytochrome P450 enzymes
  interaction with cytochrome P450 enzymes: lacks interaction

## bivalirudin
[1]; acute coronary syndrome
  rate of bleeding compared to heparin: lower rate of bleeding
[2]
  excreted by the kidneys: about 20%

## CCOC(=O)CN[C@@H](C(=O)N1CC[C@H]1C(=O)NCc1ccc(/C(N)=N\O)cc1)C1CCCCC1 [Ximelagatran]
[1]; treatment for over 35 days
  hepatic toxicity: linked with the risk of hepatic toxicity

## N=C(N)c1ccc(CNC(=O)[C@@H]2CCN2C(=O)[C@H](NCC(=O)O)C2CCCCC2)cc1 [melagatran]
[2]
  oral availability / oral activity: poorly orally available

## CC1CNc2c(cccc2S(=O)(=O)N[C@@H](CCCNC(=N)N)C(=O)N2CC[C@@H](C)C[C@@H]2C(=O)O)C1 (some centres unmarked) [Argatroban]
[2]
  plasma half-life: approximately 45 minutes
[3]
  pKa: 13

## desirudin
[1]; in vivo
  bleeding rates versus heparin: similar
  rate of proximal deep vein thrombosis: reduced
[1]; versus enoxaparin or unfractionated heparin
  prevention of VTE: superior

## lepirudin
[1]; [8]
  risk for major bleeding: increased
  risk of new thrombosis: decreased

## thrombin
[4]; biofilms exposed to 0.01 U/ml
  adhesion to human intestinal epithelium monolayers: adhered significantly more
[4]; biofilms exposed to 0.1 U/ml
  ability to invade human intestinal epithelium monolayers: significantly increased
Mouse colon; 50 μl of 100 U/ml per mouse daily for 10 days
  translocation of aerobic bacteria into mesenteric lymph nodes: caused the translocation
Mouse colon; [9]
  colon thickness: significant increase
  macroscopic damage: caused macroscopic damage
Mouse colon; PAR4-deficient mice
  damage score, wall thickness and MPO activity: significantly reduced
Mouse colon; PAR-1-deficient mice
  macroscopic damage, colonic wall thickness and MPO activity: still exhibited significant
Mouse colon; vs vehicle or boiled thrombin
  translocation of anaerobic bacteria: not significantly different
[5]
  potential to adhere to human intestinal epithelium monolayers: increased

## [H]/N=C(/N)c1ccc(NCc2nc3cc(C(=O)N(CCC(=O)O)c4ccccn4)ccc3n2C)cc1 [Dabigatran]
[6]; 100 μl 5 μM
  MPO activity: reducing significantly
  colon thickness: reducing significantly
  macroscopic damage score: reducing significantly
  weight loss: reducing significantly
[6]
  blood in the feces (fecal bleeding score): reduced significantly
[7]
  thrombin activity detected in tissue (VPR-AMC substrate): inhibited
[2]
  oral availability / oral activity: not orally active

## heparin
IBD patients
  benefit of treatment in IBD patients: some benefits
